# Target: T1, protein tyrosine phosphatase (PTP) 1B (Homo sapiens, UniProt P18031)
# T1 sequence (P18031 1-435): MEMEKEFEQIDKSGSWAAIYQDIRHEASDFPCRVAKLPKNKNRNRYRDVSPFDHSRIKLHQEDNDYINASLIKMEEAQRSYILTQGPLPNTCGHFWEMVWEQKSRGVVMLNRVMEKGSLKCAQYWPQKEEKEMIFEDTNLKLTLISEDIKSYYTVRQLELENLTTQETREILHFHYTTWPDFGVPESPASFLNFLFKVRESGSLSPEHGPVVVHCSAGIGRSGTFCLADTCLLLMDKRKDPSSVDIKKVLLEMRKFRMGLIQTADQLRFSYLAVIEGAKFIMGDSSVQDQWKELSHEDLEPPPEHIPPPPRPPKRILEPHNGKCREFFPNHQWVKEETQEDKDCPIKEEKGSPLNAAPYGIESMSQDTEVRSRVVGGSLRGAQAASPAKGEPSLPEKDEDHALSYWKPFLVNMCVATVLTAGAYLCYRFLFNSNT
# Experiment: in vitro PTP1B inhibitor screening assay
# Type: biochemical
structure (smiles),measurement,value
"C[C@H]1Oc2cc3c(-c4c(O)cc(O)c5c(O)c6c(cc45)O[C@H](C)[C@@H](C)C6=O)c(O)cc(O)c3c(O)c2C(=O)[C@@H]1C [4548-G05, [9,9′-Bi-4H-naphtho[2,3-b]pyran]-4,4′-dione,2,2′,3,3′-tetrahydro-5,5′,6,6′,8,8′-hexahydroxy-2,2′,3,3′-tetramethyl]",IC50,75.3 ± 2.52 µM

# Reference: publication PMC3964510 (Diabetes, 2014)
